For this experiment, the target named is EGFR (human) (UniProt P00533). The conditions noted are these: mda-mb-231.

Here are results for two compounds from the Kinase Knowledgebase extract (Sharma et al. 2016).

pIC50: −log10 of the molar value.

EGFR (human), sequence (P00533 whole entry, looked up): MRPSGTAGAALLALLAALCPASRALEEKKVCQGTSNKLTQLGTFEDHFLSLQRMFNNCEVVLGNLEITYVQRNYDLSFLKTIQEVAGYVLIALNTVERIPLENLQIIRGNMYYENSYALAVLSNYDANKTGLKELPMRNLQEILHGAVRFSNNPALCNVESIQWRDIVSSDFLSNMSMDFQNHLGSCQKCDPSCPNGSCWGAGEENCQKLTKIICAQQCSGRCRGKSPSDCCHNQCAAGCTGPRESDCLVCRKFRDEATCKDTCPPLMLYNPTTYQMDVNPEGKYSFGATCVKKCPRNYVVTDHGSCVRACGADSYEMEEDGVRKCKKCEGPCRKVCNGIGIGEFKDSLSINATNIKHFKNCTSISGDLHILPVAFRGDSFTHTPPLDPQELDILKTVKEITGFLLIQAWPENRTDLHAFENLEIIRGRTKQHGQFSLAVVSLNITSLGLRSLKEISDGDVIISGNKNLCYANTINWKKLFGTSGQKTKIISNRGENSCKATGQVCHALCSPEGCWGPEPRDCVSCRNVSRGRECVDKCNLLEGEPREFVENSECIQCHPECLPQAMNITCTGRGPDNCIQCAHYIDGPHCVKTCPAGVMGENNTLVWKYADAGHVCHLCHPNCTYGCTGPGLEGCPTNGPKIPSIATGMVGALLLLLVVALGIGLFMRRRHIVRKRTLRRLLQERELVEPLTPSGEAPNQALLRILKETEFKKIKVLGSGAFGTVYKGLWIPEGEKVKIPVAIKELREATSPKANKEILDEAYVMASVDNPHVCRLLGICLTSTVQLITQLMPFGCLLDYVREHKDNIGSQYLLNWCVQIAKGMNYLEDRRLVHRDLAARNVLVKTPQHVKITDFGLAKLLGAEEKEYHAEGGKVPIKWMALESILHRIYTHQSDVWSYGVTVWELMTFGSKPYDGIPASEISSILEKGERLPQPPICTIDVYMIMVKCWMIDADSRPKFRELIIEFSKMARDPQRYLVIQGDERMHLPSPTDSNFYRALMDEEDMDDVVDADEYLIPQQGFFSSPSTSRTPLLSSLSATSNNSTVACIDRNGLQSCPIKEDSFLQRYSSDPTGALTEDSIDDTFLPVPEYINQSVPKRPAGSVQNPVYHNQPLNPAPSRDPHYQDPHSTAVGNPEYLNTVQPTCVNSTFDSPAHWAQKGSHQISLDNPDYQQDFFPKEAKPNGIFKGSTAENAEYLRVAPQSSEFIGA

The compound `C/C(O)=C(/C#N)C(=O)Nc1ccc(OC(F)(F)F)cc1` gave a pIC50 of 4.55.

The compound `Cc1oncc1C(=O)Nc1ccc(C(F)(F)F)cc1` showed a pIC50 of 4.01.
